Measured values published in patent US20180370927A1, “MICROBIOCIDAL OXADIAZOLE DERIVATIVES” (SYNGENTA PARTICIPATIONS AG, priority 2015, published 2018).

Legend:
[1] = system: Puccinia recondita f. Sp. Tritici; experiment: Puccinia recondita f. sp. tritici / wheat / leaf disc preventative (brown rust); format: in vivo; details: foliar, 200 ppm in the applied formulation, wheat leaf segments, preventative, assessed 7 to 9 days after application, read-out: disease control compared to untreated control leaf disks
Summary of the method: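 Wheat cv. Kanzler leaf segments on agar sprayed with formulated compound in water, inoculated with rust spores 1 day later. Incubated at 19° C, 75% rh, 12 h light/12 h dark; percent disease control versus untreated scored 7 to 9 days after application; tested at 200 ppm.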

[2] = system: Glomerella lacenarium (Colletotrichum lacenarium); experiment: Glomerella lacenarium (Colletotrichum lacenarium) liquid culture / cucumber / preventative (anthracnose); format: cell-based; details: 20 ppm in the applied formulation, liquid culture in PDB, 24° C., 3 to 4 days after application, read-out: disease control (inhibition of growth, photometric) compared to untreated control
Summary of the method: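 Cryostored conidia in potato dextrose broth added to DMSO compound solution in microtiter plates, incubated at 24° C. Growth inhibition read photometrically 3 to 4 days after application, as percent control versus untreated check; compounds tested at 20 ppm.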

[3] = system: Puccinia recondita f. Sp. Tritici; experiment: Puccinia recondita f. sp. tritici / wheat / leaf disc curative (brown rust); format: in vivo; details: foliar, 200 ppm in the applied formulation, wheat leaf segments, curative (applied 1 day after inoculation), assessed 6 to 8 days after application, read-out: disease control compared to untreated control leaf disks
Summary of the method: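 Wheat cv. Kanzler leaf segments on agar were inoculated with spores, kept dark at 19° C, 75% RH, then sprayed with diluted formulated compound 1 day after inoculation (curative). Incubation continued at 19° C, 75% RH, 12 h light/12 h dark, with percent disease control versus untreated scored 6 to 8 days after application.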

Phakopsora pachyrhizi = Phakopsora pachyrhizi / soybean / leaf disc preventative (Asian soybean rust); format: in vivo; details: foliar, 200 ppm in the applied formulation, soybean leaf disks, assessed 12 to 14 days after application, read-out: disease control compared to untreated control leaf disks
Summary of the method: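 Soybean leaf discs on water agar were sprayed with formulated compound diluted in water, then inoculated one day later with spore suspension on the lower leaf surface. Held 24-36 h dark at 20° C., 75% RH, then 12 h light/day; percent disease control versus untreated scored 12 to 14 days after application.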

CC(C)CC(=O)C(=O)NCc1ccc(-c2noc(C(F)(F)F)n2)cc1 [Compound 1.50, 4-methyl-2-oxo-N-[[4-[5-(trifluoromethyl)-1,2,4-oxadiazol-3-yl]phenyl]methyl]pentanamide]
≥ 80%: pest or weed control at 200 ppm [1] | inhibition at 20 ppm [2] | pest or weed control at 200 ppm [3] | pest or weed control at 200 ppm (Phakopsora pachyrhizi)

O=C(NCc1ccc(-c2noc(C(F)(F)F)n2)cc1)C(=O)c1cccs1 [Compound 1.51, 2-oxo-2-(2-thienyl)-N-[[4-[5-(trifluoromethyl)-1,2,4-oxadiazol-3-yl]phenyl]methyl]acetamide]
≥ 80%: pest or weed control at 200 ppm [1] | inhibition at 20 ppm [2] | pest or weed control at 200 ppm [3] | pest or weed control at 200 ppm (Phakopsora pachyrhizi)

CC(C)(C)C(=O)C(=O)NCc1ccc(-c2noc(C(F)(F)F)n2)cc1 [Compound 1.52, 3,3-dimethyl-2-oxo-N-[[4-[5-(trifluoromethyl)-1,2,4-oxadiazol-3-yl]phenyl]methyl]butanamide]
≥ 80%: pest or weed control at 200 ppm [1] | inhibition at 20 ppm [2] | pest or weed control at 200 ppm [3] | pest or weed control at 200 ppm (Phakopsora pachyrhizi)

CCC(=O)C(=O)NCc1ccc(-c2noc(C(F)(F)F)n2)cc1 [Compound 1.53, 2-oxo-N-[[4-[5-(trifluoromethyl)-1,2,4-oxadiazol-3-yl]phenyl]methyl]butanamide]
≥ 80%: pest or weed control at 200 ppm [1] | inhibition at 20 ppm [2] | pest or weed control at 200 ppm [3] | pest or weed control at 200 ppm (Phakopsora pachyrhizi)

CON(Cc1ccc(-c2noc(C(F)(F)F)n2)cc1F)C(=O)C(=O)CC(C)C [Compound 1.55, N-[[2-fluoro-4-[5-(trifluoromethyl)-1,2,4-oxadiazol-3-yl]phenyl]methyl]-N-methoxy-4-methyl-2-oxo-pentanamide]
≥ 80%: pest or weed control at 200 ppm [1] | inhibition at 20 ppm [2] | pest or weed control at 200 ppm [3] | pest or weed control at 200 ppm (Phakopsora pachyrhizi)

CCC(=O)C(=O)N(Cc1ccc(-c2noc(C(F)(F)F)n2)cc1F)OC [Compound 1.58, N-[[2-fluoro-4-[5-(trifluoromethyl)-1,2,4-oxadiazol-3-yl]phenyl]methyl]-N-methoxy-2-oxo-butanamide]
≥ 80%: pest or weed control at 200 ppm [1] | inhibition at 20 ppm [2] | pest or weed control at 200 ppm [3] | pest or weed control at 200 ppm (Phakopsora pachyrhizi)

CCC(=O)C(=O)NCc1ccc(-c2noc(C(F)(F)F)n2)cc1Cl [Compound 1.64, N-[[2-chloro-4-[5-(trifluoromethyl)-1,2,4-oxadiazol-3-yl]phenyl]methyl]-2-oxo-butanamide]
≥ 80%: pest or weed control at 200 ppm [1] | inhibition at 20 ppm [2] | pest or weed control at 200 ppm [3] | pest or weed control at 200 ppm (Phakopsora pachyrhizi)

O=C(NCc1c(F)cc(-c2noc(C(F)(F)F)n2)cc1F)C(=O)c1cccs1 [Compound 1.70, N-[[2,6-difluoro-4-[5-(trifluoromethyl)-1,2,4-oxadiazol-3-yl]phenyl]methyl]-2-oxo-2-(2-thienyl)acetamide]
≥ 80%: pest or weed control at 200 ppm [1] | inhibition at 20 ppm [2] | pest or weed control at 200 ppm [3] | pest or weed control at 200 ppm (Phakopsora pachyrhizi)

CC(C)(C)C(=O)C(=O)NCc1c(F)cc(-c2noc(C(F)(F)F)n2)cc1F [Compound 1.71, N-[[2,6-difluoro-4-[5-(trifluoromethyl)-1,2,4-oxadiazol-3-yl]phenyl]methyl]-3,3-dimethyl-2-oxo-butanamide]
≥ 80%: pest or weed control at 200 ppm [1] | inhibition at 20 ppm [2] | pest or weed control at 200 ppm [3] | pest or weed control at 200 ppm (Phakopsora pachyrhizi)

CON(Cc1ccc(-c2noc(C(F)(F)F)n2)cc1)C(=O)C(=O)CC(C)C [Compound 1.72, N-methoxy-4-methyl-2-oxo-N-[[4-[5-(trifluoromethyl)-1,2,4-oxadiazol-3-yl]phenyl]methyl]pentanamide]
≥ 80%: pest or weed control at 200 ppm [1] | inhibition at 20 ppm [2] | pest or weed control at 200 ppm [3] | pest or weed control at 200 ppm (Phakopsora pachyrhizi)

CON(Cc1ccc(-c2noc(C(F)(F)F)n2)cc1)C(=O)C(=O)C(C)(C)C [Compound 1.74, N-methoxy-3,3-dimethyl-2-oxo-N-[[4-[5-(trifluoromethyl)-1,2,4-oxadiazol-3-yl]phenyl]methyl]butanamide]
≥ 80%: pest or weed control at 200 ppm [1] | inhibition at 20 ppm [2] | pest or weed control at 200 ppm [3] | pest or weed control at 200 ppm (Phakopsora pachyrhizi)

O=C(NCc1ccc(-c2noc(C(F)(F)F)n2)cc1)C(=O)c1ccccc1 [Compound 1.75, 2-oxo-2-phenyl-N-[[4-[5-(trifluoromethyl)-1,2,4-oxadiazol-3-yl]phenyl]methyl]acetamide]
≥ 80%: pest or weed control at 200 ppm [1] | inhibition at 20 ppm [2] | pest or weed control at 200 ppm [3] | pest or weed control at 200 ppm (Phakopsora pachyrhizi)

CON(Cc1ccc(-c2noc(C(F)(F)F)n2)cc1)C(=O)C(=O)c1ccccc1 [Compound 1.76, N-methoxy-2-oxo-phenyl-N-[[4-[5-(trifluoromethyl)-1,2,4-oxadiazol-3-yl]phenyl]methyl]acetamide]
≥ 80%: pest or weed control at 200 ppm [1] | inhibition at 20 ppm [2] | pest or weed control at 200 ppm [3] | pest or weed control at 200 ppm (Phakopsora pachyrhizi)

O=C(NCc1ccc(-c2noc(C(F)(F)F)n2)cc1F)C(=O)c1ccco1 [Compound 1.77, N-[[2-fluoro-4-[5-(trifluoromethyl)-1,2,4-oxadiazol-3-yl]phenyl]methyl]-2-(2-furyl)-2-oxo-acetamide]
≥ 80%: pest or weed control at 200 ppm [1] | inhibition at 20 ppm [2] | pest or weed control at 200 ppm [3] | pest or weed control at 200 ppm (Phakopsora pachyrhizi)

CCC(=O)C(=O)NCc1ccc(-c2noc(C(F)(F)F)n2)c(F)c1 [Compound 1.78, N-[[3-fluoro-4-[5-(trifluoromethyl)-1,2,4-oxadiazol-3-yl]phenyl]methyl]-2-oxo-butanamide]
≥ 80%: pest or weed control at 200 ppm [1] | inhibition at 20 ppm [2] | pest or weed control at 200 ppm [3] | pest or weed control at 200 ppm (Phakopsora pachyrhizi)

O=C(NCc1ccc(-c2noc(C(F)(F)F)n2)c(F)c1)C(=O)c1ccco1 [Compound 1.79, N-[[3-fluoro-4-[5-(trifluoromethyl)-1,2,4-oxadiazol-3-yl]phenyl]methyl]-2-(2-furyl)-2-oxo-acetamide]
≥ 80%: pest or weed control at 200 ppm [1] | inhibition at 20 ppm [2] | pest or weed control at 200 ppm [3] | pest or weed control at 200 ppm (Phakopsora pachyrhizi)

CCC(=O)C(=O)NCc1ccc(-c2noc(C(F)(F)F)n2)c(F)c1F [Compound 1.80, N-[[2,3-difluoro-4-[5-(trifluoromethyl)-1,2,4-oxadiazol-3-yl]phenyl]methyl]-2-oxo-butanamide]
≥ 80%: pest or weed control at 200 ppm [1] | inhibition at 20 ppm [2] | pest or weed control at 200 ppm [3] | pest or weed control at 200 ppm (Phakopsora pachyrhizi)

O=C(NCc1ccc(-c2noc(C(F)(F)F)n2)cc1)C(=O)c1ccco1 [Compound 1.82, 2-(2-furyl)-2-oxo-N-[[4-[5-(trifluoromethyl)-1,2,4-oxadiazol-3-yl]phenyl]methyl]acetamide]
≥ 80%: pest or weed control at 200 ppm [1] | inhibition at 20 ppm [2] | pest or weed control at 200 ppm [3] | pest or weed control at 200 ppm (Phakopsora pachyrhizi)

CON(Cc1ccc(-c2noc(C(F)(F)F)n2)cc1F)C(=O)C(=O)c1ccco1 [Compound 1.83, N-[[2-fluoro-4-[5-(trifluoromethyl)-1,2,4-oxadiazol-3-yl]phenyl]methyl]-2-(2-furyl)-N-methoxy-2-oxo-acetamide]
≥ 80%: pest or weed control at 200 ppm [1] | inhibition at 20 ppm [2] | pest or weed control at 200 ppm [3] | pest or weed control at 200 ppm (Phakopsora pachyrhizi)

CC(=O)C(=O)NCc1c(F)cc(-c2noc(C(F)(F)F)n2)cc1F [Compound 1.87, N-[[2,6-difluoro-4-[5-(trifluoromethyl)-1,2,4-oxadiazol-3-yl]phenyl]methyl]-2-oxo-propanamide]
≥ 80%: pest or weed control at 200 ppm [1] | inhibition at 20 ppm [2] | pest or weed control at 200 ppm [3] | pest or weed control at 200 ppm (Phakopsora pachyrhizi)

O=C(NCc1c(F)cc(-c2noc(C(F)(F)F)n2)cc1F)C(=O)c1ccco1 [Compound 1.88, N-[[2,6-difluoro-4-[5-(trifluoromethyl)-1,2,4-oxadiazol-3-yl]phenyl]methyl]-2-(2-furyl)-2-oxo-acetamide]
≥ 80%: pest or weed control at 200 ppm [1] | inhibition at 20 ppm [2] | pest or weed control at 200 ppm [3] | pest or weed control at 200 ppm (Phakopsora pachyrhizi)

CCC(=O)C(=O)N(Cc1ccc(-c2noc(C(F)(F)F)n2)cc1)OC [Compound 1.89, N-methoxy-2-oxo-N-[[4-[5-(trifluoromethyl)-1,2,4-oxadiazol-3-yl]phenyl]methyl]butanamide]
≥ 80%: pest or weed control at 200 ppm [1] | inhibition at 20 ppm [2] | pest or weed control at 200 ppm [3] | pest or weed control at 200 ppm (Phakopsora pachyrhizi)

CON(Cc1ccc(-c2noc(C(F)(F)F)n2)cc1)C(=O)C(=O)c1ccco1 [Compound 1.90, 2-(2-furyl)-N-methoxy-2-oxo-N-[[4-[5-(trifluoromethyl)-1,2,4-oxadiazol-3-yl]phenyl]methyl]acetamide]
≥ 80%: pest or weed control at 200 ppm [1] | inhibition at 20 ppm [2] | pest or weed control at 200 ppm [3] | pest or weed control at 200 ppm (Phakopsora pachyrhizi)
